Assay results: paper PMC6595003, “Insights into real-time chemical processes in a calcium sensor protein-directed dynamic library” (Nature Communications, 2019)

Test system: Cortical neurons from E14 wild-type mice
Test: Toxicity in primary cultured neurons (percentage of picnotic bodies)
Format: cell-based
Details: 24 h
Excerpt: Mean ± SD from three independent experiments. The curves represent the least squares fitting of the experimental data to a 1:1 stoichiometry. To properly compare the different curves, intensities were normalized and represented. […] Input represents 1/10 cell lysates before IP. Quantifications of each lane from four experiments are shown below the blots. Bars represent percentage of NCS-1/ Ric8a binding (mean ± SD) normalized to DMSO. […] CNS + (green) for Pe > 4.47 × 10^−6 cm s^−1, CNS- (red) for compounds with Pe < 4.47 × 10^–6 cm s^−1. […] Mean ± SD from three independent experiments. […] Then, the percentage of picnotic bodies over the total nuclei was analyzed. Mean ± SD from three independent experiments. Paired two-tailed Student’s test ***P˂0.001; **P < 0.01; *P < 0.05. Source data are provided as a Source Data file. IP immunoprecipitation, WB western blot
Finally, cell toxicity in neurons was quantified as percentage of picnotic bodies for 3b (Fig. 6d).
Cortical neurons were obtained from E14 wt mice (C57BL6J). Mice were maintained in accordance to European law and following Hospital Ramón y Cajal´s animal guidelines. […] Three independent experiments counting cells from three different wells per concentration were performed. To analyzed cell death, neurons were fixed and stained with DAPI.

O=C(Cc1c[nH]c2ccccc12)NN=Cc1ccc([N+](=O)[O-])c(O)c1 (mixture of isomers) [3b]
percentage of picnotic bodies, % exp 2 (0.2 μM): 12% | percentage of picnotic bodies, % exp 3 (0.2 μM): 10% | percentage of picnotic bodies, % exp.1 (0.2 μM): 10.1% | percentage of picnotic bodies over total nuclei, average (0.2 μM, DMSO 8.4): 10.7% | percentage of picnotic bodies, % exp 2 (2 μM): 10% | percentage of picnotic bodies, % exp 3 (2 μM): 10% | percentage of picnotic bodies, % exp.1 (2 μM): 13.4% | percentage of picnotic bodies over total nuclei, average (2 μM, DMSO 8.06667): 11.1333% | percentage of picnotic bodies, % exp 2 (10 μM): 12.5% | percentage of picnotic bodies, % exp 3 (10 μM): 15% | percentage of picnotic bodies, % exp.1 (10 μM): 14.3% | percentage of picnotic bodies over total nuclei, average (10 μM, DMSO 12.1667): 13.9333% | percentage of picnotic bodies, % exp 2 (20 μM): 17.5% | percentage of picnotic bodies, % exp 3 (20 μM): 22.6% | percentage of picnotic bodies, % exp.1 (20 μM): 15.3% | percentage of picnotic bodies over total nuclei, average (20 μM, DMSO 12): 18.4667% | cell toxicity in neurons compared with vehicle DMSO (0.2, 2, 10, 20 μM): no significant differences
